Values of other authors as cited in patent publication US5670479A, “α-ketoamide derivatives as inhibitors of thrombosis” (Corvas International, Inc., priority 1994, dated 1997).
Converted amounts (≈) assume the structure as drawn.

Legend:
[1] = molecular target: T1, microsomal aminopeptidase (Sus scrofa, UniProt P15145); conditions: Ocain et al. 1992; cited from earlier work
T1 sequence (P15145 1-963): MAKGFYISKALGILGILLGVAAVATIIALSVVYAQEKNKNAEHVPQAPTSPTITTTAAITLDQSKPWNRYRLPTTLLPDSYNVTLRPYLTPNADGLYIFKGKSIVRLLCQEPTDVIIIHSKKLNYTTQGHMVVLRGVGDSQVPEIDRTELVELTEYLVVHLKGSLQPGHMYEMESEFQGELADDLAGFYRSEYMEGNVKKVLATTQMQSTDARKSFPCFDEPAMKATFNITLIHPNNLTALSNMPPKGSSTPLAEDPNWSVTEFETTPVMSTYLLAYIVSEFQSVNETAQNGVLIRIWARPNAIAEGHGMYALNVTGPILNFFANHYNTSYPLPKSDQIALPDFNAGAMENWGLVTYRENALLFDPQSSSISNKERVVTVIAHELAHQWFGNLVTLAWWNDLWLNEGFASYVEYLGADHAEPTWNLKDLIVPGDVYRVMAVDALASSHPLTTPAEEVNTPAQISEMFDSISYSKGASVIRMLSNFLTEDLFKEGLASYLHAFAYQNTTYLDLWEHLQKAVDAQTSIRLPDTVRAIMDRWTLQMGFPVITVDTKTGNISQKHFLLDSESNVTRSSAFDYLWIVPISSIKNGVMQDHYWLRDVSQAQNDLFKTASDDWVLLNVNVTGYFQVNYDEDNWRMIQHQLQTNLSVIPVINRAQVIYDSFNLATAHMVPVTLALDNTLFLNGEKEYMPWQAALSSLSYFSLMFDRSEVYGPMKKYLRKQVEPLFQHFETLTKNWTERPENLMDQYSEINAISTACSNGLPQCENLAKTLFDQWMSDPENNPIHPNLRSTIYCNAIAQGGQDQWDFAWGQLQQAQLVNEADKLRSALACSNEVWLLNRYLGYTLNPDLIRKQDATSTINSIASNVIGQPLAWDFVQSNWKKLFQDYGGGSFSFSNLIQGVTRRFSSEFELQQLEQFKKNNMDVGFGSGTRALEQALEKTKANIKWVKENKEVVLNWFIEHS

baboons [2] = conditions: baboon; dose which gives a 50% inhibition of platelet deposition; other direct antithrombins evaluated earlier in this model; cited from earlier work
baboons [3] = conditions: baboon, other direct antithrombins evaluated earlier in this model, cited from earlier work; for Antihemostatic Effects APTT: control 32 sec; for Antihemostatic Effects Bleeding Time: control 4 min
thrombin [4] = conditions: Fusetani et al.; cited from earlier work
thrombin [5] = molecular target: thrombin (Homo sapiens, UniProt P00734); conditions: reported in literature; cited from earlier work

## NC(=O)C(=O)C(N)Cc1ccccc1 (centres unmarked) [3-Amino-2-oxo-4-phenylbutanoic acid amide]
[1]
  Ki: 2500 nM

## CC1CNc2c(cccc2S(=O)(=O)N[C@@H](CCCNC(=N)N)C(=O)N2CC[C@@H](C)C[C@@H]2C(=O)O)C1 (stereo partly drawn) [Argatroban, 2R,4R-4-methyl-1-[N-2-(3-methyl-1,2,3,4-tetrahydro-8-quinolinesulfonyl)-L-argininal]-2-piperdinecarboxylic acid]
Baboons [2]
  Antithrombotic Effects ED50: > 800 nmol/kg/min
Baboons [3]
  Antihemostatic Effects APTT: > 300 s

## N=C(N)NCCC[C@@H]1NC(=O)[C@@H]2CCCN2C(=O)[C@@H](NC=O)CNC(=O)/C=C/[C@H](Cc2ccc(O)cc2)NC(=O)[C@@H](Cc2ccccc2)NC(=O)C1=O [Cyclotheonamide A]
Thrombin [4]
  IC50 (thrombin): 76 µg/mL (≈ 104 µM)

## N=C(N)NCCC[C@@H](C=O)NC(=O)[C@@H]1CCCN1C(=O)[C@H](N)Cc1ccccc1 [dF-P-R-al, D-phenylalanyl-prolyl-argininal]
Baboons [2]
  Antithrombotic Effects ED50: 250 nmol/kg/min
Baboons [3]
  Antihemostatic Effects APTT: 145 s
  Antihemostatic Effects Bleeding Time: 14 min

## NC(N)=NCCC[C@H](NC(=O)[C@@H]1CCCN1C(=O)[C@H](N)Cc1ccccc1)B(O)O [dF-P-boroR, D-phenyalanyl-prolinyl-boroarginine]
Baboons [2]
  Antithrombotic Effects ED50: 25 nmol/kg/min
Baboons [3]
  Antihemostatic Effects APTT: 95 s
  Antihemostatic Effects Bleeding Time: 12 min

## N-acetyl-D-Phe-Pro Arg-[yC(=O)--CH2 ]--CH2 --CH2 --CH2 --(C=O)-Gln-Ser-His-Asn-Asp-Gly-Asp-Phe-Glu-Glu-Ile-Pro-Glu-Glu-Tyr-Leu-Gln
Thrombin [5]
  Ki: 0.14 nM
